Among the data in patent publication US11958842B2, “Substituted phenazines and methods of treating cancer and bacterial diseases” (Adjutec Pharma AS, priority 2016, dated 2024) are EC50 and LogPeff values, retold here.

A word on the EC50: it is the concentration giving half of the maximal effect.

Data set [1] relates to rat cardiomyoblast (H9c2) cells. Briefly: Cytotoxicity, WST-1 and nuclear morphology (Example 73). Format: cell-based. To be noted: Rattus norvegicus; H9c2, 19% O2, 24 hours of incubation; read-out: EC50 (μM) H9c2 19% O2. The method, boiled down:
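MOLM-13 (RPMI/FBS), NRK and H9c2 (DMEM/10% FBS) cells under 2% or 20% O2 at 37° C were exposed to analogues for 24 h (≤1% DMSO). Viability was read by WST-1, and cell death by Hoechst 33342 nuclear morphology; EC50 came from four-parameter regression.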
On the technique in general: Tetrazolium assays rely on reduction of a dye to a coloured formazan, in cell work by metabolically active cells.

Data set [2] is described as follows: Parallel artificial membrane permeability assay (PAMPA). To be noted: PAMPA, 50 μM in PBS, room temperature, five hours. (In general: The PAMPA barrier holds no transporters, so it reflects passive diffusion.)

Turning to `COc1cccc2c1[n+]([O-])c1cccc(O)c1[n+]2O` [Example 5a, 1-hydroxy-6-methoxyphenazine 5.10-dioxide, reference compound], the EC50 in data set [1] amounted to 46 ± 4.1 µM. The LogPeff in data set [2] is on record as −5.29.
